Tests used:
Assay type in all cases: in vivo, C57BL/6 (B6) mice
[1] = test system: neutrophils in the cornea, P. aeruginosa KEI 1025; assay: Myeloperoxidase (MPO) assay, KEI 1025 infection; conditions: pretreatment subconj. + IP, vs PBS
Method: (§1) The left eyes of B6 mice (n=5/group/time) were injected with 5 μl of 2 μg/μl glycyrrhizin (GLY) (Sigma-Aldrich, St. Louis, Mo.) or PBS (control) subconjunctivally, one day before infection. Similar treatment was done using carbenoxolone (CBX) (Sigma-Aldrich, St. Louis, Mo.). All mice were injected intraperitoneally (IP) at 1 and 3 days p.i. with 100 μl of GLY (2 μg/μl) or CBX (1 μg/μl). PBS served as control for all these experiments. In a separate similar experiment mice were treated one day before infection with GLY subconjunctivally and injected intraperitoneally (i.p.) with GLY plus recombinant (r) HMGB1 (1 μg/100 μl) or GLY plus PBS. IP injections were similarly given at 1 and 3 days p.i. In an additional experiment, KEI 1025 infected B6 mice were treated with 5 μl of 2 μg/μl GLY subconjunctivally at 6 hours p.i. and injected intraperitoneally at 1 and 3 days p.i. with 100 μl of GLY (2 μg/μl).
This assay was used to quantitate neutrophils in the cornea of GLY and PBS treated mice (n=5/group/time) infected with KEI 1025 or ATCC strain 19660. Individual corneas were removed at 3 and 5 days p.i. and homogenized in 1.0 ml of 50 mM phosphate buffer (pH 6.0) containing 0.5% HTAB. […] The change in absorbency was monitored at 460 nm for 5 min at 30 sec intervals. The slope of the line was determined for each sample and used to calculate units of MPO/cornea. […]

[2] = test system: P. aeruginosa ATCC strain 19660; assay: Quantification of viable bacteria (plate count), strain 19660 infection; conditions: vs PBS
Method: as §1
Mice were sacrificed at 3 and 5 days p.i. and KEI 1025 or ATCC strain 19660 infected corneas from GLY, CBX or PBS (or GLY+/−rHMGB1) treated B6 mice were harvested (n=5/group/time). Each cornea was homogenized in 1 ml of sterile saline (0.85% NaCl, pH 7.4) containing 0.25% BSA. A 100 μl of the corneal homogenate was serially diluted (1:10) in sterile saline containing 0.25% BSA. […] Plates were incubated overnight at 37° C. and viable bacteria manually counted. […]

P. aeruginosa KEI 1025 = assay: Quantification of viable bacteria (plate count), KEI 1025 infection; conditions: vs PBS; for bacterial load (plate count): post treatment: subconj. 6 hours p.i. + IP 1 and 3 days p.i.; for bacterial load in the corneas (plate count): pretreatment subconj. + IP
Method: as §1
Mice were sacrificed at 3 and 5 days p.i. and KEI 1025 or ATCC strain 19660 infected corneas from GLY, CBX or PBS (or GLY+/−rHMGB1) treated B6 mice were harvested (n=5/group/time). Each cornea was homogenized in 1 ml of sterile saline (0.85% NaCl, pH 7.4) containing 0.25% BSA. A 100 μl of the corneal homogenate was serially diluted (1:10) in sterile saline containing 0.25% BSA. Selected dilutions were plated in triplicate on selective culture medium (Difco™ Pseudomonas Isolation Agar, BD Biosciences, Inc., Franklin Lakes, N.J.). Plates were incubated overnight at 37° C. and viable bacteria manually counted. Results are reported as log10 CFU/cornea±SEM.

[3] = test system: protein levels in P. aeruginosa KEI 1025 infected cornea; assay: ELISA of corneal proteins, KEI 1025 infection; conditions: vs PBS
Method: as §1
KEI 1025 or ATCC strain 19660 infected GLY or PBS treated, B6 mice (n=5/group/time) were sacrificed at 3 and 5 days p.i. and normal and infected corneas harvested. To quantify IL-1β and CXCL2 proteins, individual corneas were homogenized in 1 ml of 50 mM potassium phosphate buffer (pH 6.0) containing 0.5% HTAB (hexadecyltrimethylammonium bromide, Sigma). To quantify HMGB1, cathelicidin-related antimicrobial peptide (CRAMP), mouse beta defensin 2 (mBD2) and mouse beta defensin 3 (mBD3) protein levels, individual corneas were homogenized in 500 μl of PBS containing 0.1% Tween 20 (Sigma) and protease inhibitors (Roche, Indianapolis, Ind.). Corneal homogenates were centrifuged at 12,000 g for 10 min. A 50 μl aliquot of each supernatant was assayed in duplicate to quantify IL-1β, CXCL2, HMGB1 and mBD2 proteins. A 100 μl aliquot of CRAMP and mBD3 supernatant was assayed in duplicate to quantify corresponding protein levels. Undiluted supernatant aliquots were used to quantify all proteins except CXCL2 (1:2 dilution) and HMGB1 (1:5 dilution). An HMGB1 ELISA kit was purchased from Chondrex Inc., Redmond, Wash. CRAMP, mBD2 and mBD3 ELISA kits were purchased from MyBioSource, Inc., San Diego, Calif. All other ELISA kits were purchased from R&D Systems, Minneapolis, Minn. Assays were run following the manufacturer's instructions. Sensitivities of the assays were: 2.31 […] (mBD3).

[4] = KEI 1025, pretreatment subconj. + IP, 3 days p.i.
[5] = KEI 1025, pretreatment subconj. + IP, 5 days p.i.

With `CC1(C)[C@@H](O[C@H]2O[C@H](C(=O)O)[C@@H](O)[C@H](O)[C@H]2O[C@@H]2O[C@H](C(=O)O)[C@@H](O)[C@H](O)[C@H]2O)CC[C@]2(C)[C@H]3C(=O)C=C4[C@@H]5C[C@@](C)(C(=O)O)CC[C@]5(C)CC[C@@]4(C)[C@]3(C)CC[C@@H]12` [GLY, glycyrrhizin] the “neutrophils in cornea (MPO assay)” value ([1]; 3 days p.i.) was “decreased neutrophils”, the “neutrophils in cornea (MPO assay)” value ([1]; 5 days p.i.) was “decreased neutrophils” and the “bacterial load (plate count)” value ([2]; 3 days p.i.) was “significantly reduced”. The “bacterial load (plate count)” value ([2]; 5 days p.i.) was “significantly reduced”, the “bacterial load (plate count)” value (P. aeruginosa KEI 1025; 3 days p.i.) was “reduced significantly” and the “bacterial load (plate count)” value (P. aeruginosa KEI 1025; 5 days p.i.) was “reduced significantly”. For the same molecule, the “bacterial load in the corneas (plate count)” value (P. aeruginosa KEI 1025; 3 days p.i.) was “reduced”, the “bacterial load in the corneas (plate count)” value (P. aeruginosa KEI 1025; 5 days p.i.) was “reduced” and the CXCL2 protein expression [3, 4] was “significantly decreased”. For the same molecule, the HMGB1 protein [3, 4] was “not 3 days p.i”, the IL-1 protein [3, 4] was “no different from control values” and the “expression of CRAMP (protein)” value [3, 4] was “upregulated the expression of CRAMP significantly”. The mBD2 protein [3, 4] was “significantly upregulated”, the mBD3 protein [3, 4] was “did not differ significantly” and the CXCL2 protein expression [3, 5] was “significantly decreased”. For the same molecule, the HMGB1 protein [3, 5] was “reduced HMGB1 protein significantly”, the IL-1 protein [3, 5] was “significantly decreased” and the “expression of CRAMP (protein)” value [3, 5] was “no difference between groups”. The mBD2 protein [3, 5] was “significantly upregulated”, the mBD3 protein [3, 5] was “did not differ significantly” and the HMGB1 protein ([3]; normal cornea) was “did not differ”. For the same molecule, the mBD3 protein ([3]; normal cornea) was “did not differ significantly”, the mBD2 protein ([3]; normal, contralateral uninfected eye) was “higher” and the “expression of CRAMP (protein)” value ([3]; normal, uninfected cornea) was “upregulated the expression of CRAMP significantly”.

— US10500222B2, “Compositions and methods relating to treatment of infection” (Wayne State University, priority 2015, dated 2019)
